“Also recorded” adds a separate entry of the source.
Tests used:
[1] = target: CYP2C9 (Homo sapiens, UniProt P11712); experiment: CYP inhibition in human liver microsomes, diclofenac 4′-hydroxylation; settings: for Inhibition of CYP2C9 activity (in words): human liver microsomes, extracts 2, 10, 20 µg/mL, alkaloids 1, 10, 100 µM
[2] = target: T1, human κ-opioid receptor (Homo sapiens, UniProt P41145); experiment: biochemical; type: binding
T1 construct: expressed in transfected cells

[3] = target: CYP2D6 (Homo sapiens, UniProt P10635); experiment: CYP inhibition in human liver microsomes, dextromethorphan O-demethylation; settings: for Inhibition of CYP2D6 activity (in words): human liver microsomes, extracts 2, 10, 20 µg/mL, alkaloids 1, 10, 100 µM
Chain of CYP2D6 (P10635 whole entry): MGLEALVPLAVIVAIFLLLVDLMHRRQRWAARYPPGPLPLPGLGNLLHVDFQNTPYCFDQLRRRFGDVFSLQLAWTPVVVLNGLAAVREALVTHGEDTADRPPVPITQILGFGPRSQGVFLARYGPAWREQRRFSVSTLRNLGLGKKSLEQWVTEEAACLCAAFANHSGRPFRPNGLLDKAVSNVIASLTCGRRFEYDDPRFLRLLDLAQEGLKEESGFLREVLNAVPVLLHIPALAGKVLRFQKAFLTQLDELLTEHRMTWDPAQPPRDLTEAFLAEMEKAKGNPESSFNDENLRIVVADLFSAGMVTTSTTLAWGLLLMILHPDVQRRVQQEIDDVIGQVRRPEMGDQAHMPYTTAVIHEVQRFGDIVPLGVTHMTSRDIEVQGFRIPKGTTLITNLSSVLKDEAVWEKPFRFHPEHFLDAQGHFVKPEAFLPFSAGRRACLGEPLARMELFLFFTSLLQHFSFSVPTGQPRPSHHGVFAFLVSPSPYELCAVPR

[4] = target: T2, µ-opioid receptor (Homo sapiens, UniProt P35372); experiment: biochemical; type: binding; parameters: expressed in transfected cells
T2 sequence (P35372 whole entry): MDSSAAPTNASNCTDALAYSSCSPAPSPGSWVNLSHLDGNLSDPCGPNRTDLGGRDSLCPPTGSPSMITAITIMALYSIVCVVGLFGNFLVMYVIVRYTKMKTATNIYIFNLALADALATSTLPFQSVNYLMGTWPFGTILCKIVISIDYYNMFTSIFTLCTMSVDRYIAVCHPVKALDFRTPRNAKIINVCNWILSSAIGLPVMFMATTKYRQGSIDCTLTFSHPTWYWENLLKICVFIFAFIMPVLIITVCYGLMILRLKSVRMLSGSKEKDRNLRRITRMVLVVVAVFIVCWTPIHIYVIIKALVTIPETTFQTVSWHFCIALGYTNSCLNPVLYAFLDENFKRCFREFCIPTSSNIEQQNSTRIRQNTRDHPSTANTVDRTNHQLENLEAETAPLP

[5] = target: hMOR (Homo sapiens, UniProt P35372); experiment: cell-based; type: cell-based; settings: for Emax: CHO-K1, read-out: cAMP accumulation Emax %
Chain of hMOR (P35372 whole entry): as above

[6] = target: T3, human δ-opioid receptor (Homo sapiens, UniProt P41143); experiment: Competitive radioligand binding, δ-opioid receptor; settings: for Ki: competitive binding against 3H-deltorphin, HEK293 cell membranes, minimum of three replicates, read-out: Receptor binding affinity (Ki ± SEM, nM) δ-opioid; for Affinity at δ-opioid receptor (in words): competitive radioligand binding, HEK293
T3 construct: expressed in transfected cells
T3 sequence (P41143 whole entry): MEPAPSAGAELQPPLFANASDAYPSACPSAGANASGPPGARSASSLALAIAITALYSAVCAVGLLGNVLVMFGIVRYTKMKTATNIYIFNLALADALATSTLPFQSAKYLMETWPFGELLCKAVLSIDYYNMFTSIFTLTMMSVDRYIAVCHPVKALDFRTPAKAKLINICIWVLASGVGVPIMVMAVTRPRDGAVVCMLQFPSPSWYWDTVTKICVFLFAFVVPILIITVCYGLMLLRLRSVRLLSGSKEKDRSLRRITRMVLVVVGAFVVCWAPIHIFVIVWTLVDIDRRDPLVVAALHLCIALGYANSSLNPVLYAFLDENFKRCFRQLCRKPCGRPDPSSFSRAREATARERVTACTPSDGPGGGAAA

[7] = target: T2, µ-opioid receptor; type: cell-based
[8] = target: CYP3A (Homo sapiens, UniProt P08684); experiment: CYP inhibition in human liver microsomes, midazolam 1′-hydroxylation; settings: for Inhibition of CYP3A activity (in words): human liver microsomes, extracts 2, 10, 20 µg/mL, alkaloids 1, 10, 100 µM
Chain of CYP3A (P08684 2-503): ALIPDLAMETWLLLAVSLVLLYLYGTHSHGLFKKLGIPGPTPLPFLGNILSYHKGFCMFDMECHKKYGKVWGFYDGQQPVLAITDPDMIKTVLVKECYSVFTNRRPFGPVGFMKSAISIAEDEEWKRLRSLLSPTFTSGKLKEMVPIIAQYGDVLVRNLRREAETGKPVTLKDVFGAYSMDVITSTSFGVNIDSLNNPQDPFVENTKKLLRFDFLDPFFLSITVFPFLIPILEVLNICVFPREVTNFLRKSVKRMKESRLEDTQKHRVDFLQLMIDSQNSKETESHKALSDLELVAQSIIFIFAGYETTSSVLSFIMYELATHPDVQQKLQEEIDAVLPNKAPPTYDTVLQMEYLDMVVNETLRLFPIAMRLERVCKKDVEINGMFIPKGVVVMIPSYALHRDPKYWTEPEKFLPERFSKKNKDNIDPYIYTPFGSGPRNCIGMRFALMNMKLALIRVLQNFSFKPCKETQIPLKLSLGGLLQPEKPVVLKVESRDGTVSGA

[9] = test system: human µ-opioid receptor (hMOR); settings: cited from earlier work

T1 sequence (P41145 whole entry): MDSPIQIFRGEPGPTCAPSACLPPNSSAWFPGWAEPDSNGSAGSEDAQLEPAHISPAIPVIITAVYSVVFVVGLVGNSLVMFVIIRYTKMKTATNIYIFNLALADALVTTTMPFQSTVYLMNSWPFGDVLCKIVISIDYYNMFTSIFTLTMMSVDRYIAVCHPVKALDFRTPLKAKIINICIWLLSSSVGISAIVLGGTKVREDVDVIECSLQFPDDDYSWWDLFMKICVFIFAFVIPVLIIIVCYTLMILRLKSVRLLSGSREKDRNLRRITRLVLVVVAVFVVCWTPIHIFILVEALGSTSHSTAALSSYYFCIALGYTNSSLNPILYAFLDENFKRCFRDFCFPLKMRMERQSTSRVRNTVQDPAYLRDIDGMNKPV
Chain of CYP2C9 (P11712 whole entry): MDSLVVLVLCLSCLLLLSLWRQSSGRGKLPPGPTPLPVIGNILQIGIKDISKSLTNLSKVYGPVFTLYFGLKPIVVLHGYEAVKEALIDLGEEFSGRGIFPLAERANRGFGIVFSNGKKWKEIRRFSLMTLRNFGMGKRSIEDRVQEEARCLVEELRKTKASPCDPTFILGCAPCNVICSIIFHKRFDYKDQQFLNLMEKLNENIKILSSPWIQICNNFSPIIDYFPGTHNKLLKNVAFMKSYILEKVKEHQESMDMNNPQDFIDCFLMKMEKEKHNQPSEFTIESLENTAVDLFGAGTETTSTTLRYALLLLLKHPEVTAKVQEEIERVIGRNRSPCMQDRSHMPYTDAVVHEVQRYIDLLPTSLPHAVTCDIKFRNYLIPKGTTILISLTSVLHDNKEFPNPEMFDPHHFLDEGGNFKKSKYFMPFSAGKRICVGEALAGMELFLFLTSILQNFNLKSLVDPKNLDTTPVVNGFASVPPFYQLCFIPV

SMILES	IC50 [1]	Inhibition of CYP2C9 activity (in words) [1]	Affinity at ƙ-opioid receptor (in words) [2]	Ki [2]	IC50 [3]	Inhibition of CYP2D6 activity (in words) [3]	Affinity at µ-opioid receptor (in words) [4]	Inhibition of forskolin-stimulated cAMP accumulation (in words) [5]	Ki [6]	β-arrestin-2 recruitment (in words) [7]	Inhibition of CYP3A activity (in words) [8]	IC50 at 2 min ([8]; human, microsomes, pH 7.4)	Ki [4]	EC50 [5]	Emax [5]	Affinity at δ-opioid receptor (in words) [6]	Affinity at the μ-opioid receptor compared to mitragynine [9]
CC[C@@H]1CN2CCc3c([nH]c4cccc(OC)c34)[C@@H]2C[C@@H]1/C(=C\OC)C(=O)OC [Mitragynine, mitragynine]	10 to 100 µM	concentration-dependent inhibition	moderate affinity	0.482 ± 0.029 µM	~1 µM	stronger inhibition than speciofoline; also recorded: concentration-dependent inhibition	moderate affinity	partially inhibit cAMP accumulation	> 10000 nM	fail to recruit β-arrestin-2	concentration-dependent inhibition	10 to 100 µM					
CC[C@@H]1CN2CC[C@]3(C(=O)Nc4cccc(O)c43)[C@H]2C[C@@H]1/C(=C\OC)C(=O)OC [Speciofoline, speciofoline]		concentration-dependent inhibition	did not exhibit appreciable affinity	> 10 µM		concentration-dependent inhibition	did not exhibit appreciable affinity	has no effect	> 10000 nM	fail to recruit β-arrestin-2	concentration-dependent inhibition		> 10 µM	4.24 ± 2.93 µM	12.2 ± 3.5%	did not exhibit appreciable affinity	
C[C@@H](NC(=O)[C@@H](N)Cc1ccc(O)cc1)C(=O)NCC(=O)N(C)[C@@H](Cc1ccccc1)C(=O)NCCO [DAMGO, reference compound]								fully inhibit cAMP accumulation		effectively recruit β-arrestin-2					86.2 ± 1.8%		
CC[C@@H]1CN2CC[C@@]3(O)C(=Nc4cccc(OC)c43)[C@@H]2C[C@@H]1/C(=C\OC)C(=O)OC [7-Hydroxymitragynine, 7-hydroxymitragynine]		weak inhibitor; also recorded: concentration-dependent inhibition	moderate affinity			moderate inhibitor; also recorded: concentration-dependent inhibition	strong affinity	partially inhibit cAMP accumulation		fail to recruit β-arrestin-2	weak inhibitor; also recorded: concentration-dependent inhibition					moderate affinity	approximately fivefold greater affinity
